Source: ChEMBL document CHEMBL1158251, “Determination of oenothein B as the active 5-alpha-reductase-inhibiting principle of the folk medicine Epilobium parviflorum” (J Nat Prod, 1996)

Experiment: Inhibition of 5alpha reductase from human prostatic hyperplasia

Row | SMILES | IC50
1 | CC(C)(C)NC(=O)[C@H]1CC[C@H]2[C@@H]3CC[C@H]4NC(=O)C=C[C@]4(C)[C@H]3CC[C@]12C [FINASTERIDE] | 0.01 µM
2 | O=C(O[C@H]1[C@@H]2OC(=O)c3cc(O)c(O)c(O)c3-c3c4cc(c(O)c3O)Oc3c(cc(O)c(O)c3O)C(=O)O[C@H]3C(O)O[C@@H]5COC(=O)c6cc(O)c(O)c(O)c6-c6c(cc(c(O)c6O)Oc6c(cc(O)c(O)c6O)C(=O)O[C@H]1C(O)O[C@@H]2COC4=O)C(=O)O[C@H]5[C@@H]3OC(=O)c1cc(O)c(O)c(O)c1)c1cc(O)c(O)c(O)c1 (some centres not stated) [OENOTHEIN B] | 22 µM
